In patent US4851536A, “Cyclohexylquinolines as inhibitors of interleukin 1” (American Home Products Corporation, priority 1988, dated 1989) one finds inhibition data, which are given here for 15 compounds.

By inhibition is commonly meant the percentage by which the read-out fell short of the control. A lower inhibition goes with a response near the control.

The test system of assay [1] is IL 1-induced release of neutral protease from rabbit articular chondrocytes. As to the kind of experiment: Inhibition of IL 1-induced release of neutral protease from rabbit articular chondrocytes (% inhibition of protease secretion, azocoll degradation). It counts as cell-based, rabbit (male New Zealand White). The conditions noted are these: Oryctolagus cuniculus, Chondrocyte, test compound 10 minutes prior to IL 1, 24 hours after IL 1 stimulation. The method, then: The ability of the compounds of the inventions to inhibit interleukin 1 is measured by the ability of the test compounds to inhibit the IL 1-induced release of neutral protease from rabbit articular chondrocytes.
This assay is carried out as follows:
Isolation of rabbit chondrocytes:
Male New Zealand White rabbits are anesthetized with 50 mg/kg of ketamine (i.m.) and killed by an intracardiac injection of 3 mls of Nembutal. The knee joints of both legs are resected and the articular surfaces are exposed. Cartilage slices are obtained using a scalpel and are placed in a tissue culture dish (100 mm diameter) containing 10 mls of Hank's balanced salt solution (HBSS). The chondrocytes within the cartilage slices are then liberated by a series of enzyme digestions. The slices are incubated for 10 minutes at 37° C. in 0.05% hyaluronidase (Sigma H-3884), rinsed with HBSS and incubated with 0.2% trypsin (Sigma T-2395) for 10 minutes at 37° C. The slices are rinsed again and incubated for 10 minutes at 37° C. with 1.2% collagenase (Sigma C-5138). The slices are then rinsed again with HBSS and resuspended in 10 ml of Ham's F-12 medium containing 10% fetal bovine calf serum (FCS) and 0.2% collagenase and incubated overnight at 37° C. in a 5% CO2 incubator. The next day, the medium containing the digested cartilage fragments and liberated chondrocytes is transferred to a 15 ml centrifuge tube and the cells are collected by centrifugation and washed twice and resuspended in Ham's F-12 medium. The cells are then plated into 24-well tissue culture plates (2×10^5 cells/well) and incubated at 37° C. until confluent (usually 4-6 days).
Stimulation of chondrocytes and drug treatment
The confluent chondrocytes are rinsed twice with serum-free Ham's F-12 medium and 1 ml is added to each well. Fifty μl of purified human IL 1 (100 Units/ml; Genzyme Corporation, Boston, MA) is then added to stimulate these cells to secrete neutral protease. To measure drug effects, the cells are treated with test compound 10 minutes prior to additon of IL 1. The standard screening dose is 10 μM. Twenty-four hours after IL 1 stimulation, supernatant fluids are collected and assayed for neutral protease activity.
The neutral protease activity of chondrocyte supernatant fluids is determined by their ability to degrade an insoluble protease substrate, azocoll (Sigma). Supernatants are treated for 10 minutes at room temperature with 350 μM p-aminophenylmurcuric acetate to activate the latent enzyme. Three hundred μl of supernatant is then mixed with 500 μl of a 20 mg/ml suspension of azocoll and incubated at 37° C. for 18-24 hours with gentle rocking. The mixtures are centrifuged and the amount of substrate hydrolyzed is determined by measuring the absorbance of the supernatant at 520 nm.
Drug effects are calculated as the % change in enzyme activity (absorbance)by supernatants from drug-treated chondrocytes relative to enzyme activity of supernatants from vehicle-treated chondrocytes as follows:
% Inhibition of Protease Secretion= [formula]

The test system is the same in assay [2]. The description is as above. It is filed as cell-based, rabbit (male New Zealand White). The note with it: Oryctolagus cuniculus, Chondrocyte, test compound 10 minutes prior to IL 1, 24 hours after IL 1 stimulation. The source holds these as a separate data set.

Compound `Clc1c2c(nc3ccccc13)CCSC2` [Example 4, 10-Chloro-3,4-dihydro-1H-thiopyrano[4,3-b]quinoline] came in with an inhibition at 10 µM in assay [1] of 43%. Further, in assay [2], 1 µM produced 38% inhibition and at 5 µM the inhibition was 46%.
Compound `O=S1(=O)CCc2nc3cc(Cl)ccc3c(Cl)c2C1` [Example 7, 7,10-Dichloro-3,4-dihydro-1H-thiopyrano[4,3-b]quinoline 2,2-dioxide] came in with an inhibition at 10 µM in assay [1] of 25%. In addition, in assay [2], testing at 1 µM gave an inhibition of 10% and at 5 µM the inhibition was 26%.
Consider `Clc1ccc2c(Cl)c3c(nc2c1)CCC(c1ccccc1)C3` (stereo not shown) [Example 3A, 6,9-Dichloro-1,2,3,4-tetrahydro-2-phenylacridine, hemihydrate], for which the inhibition at 10 µM in assay [1] is ≤ 20%.
For `O=S1(=O)CCc2nc3ccccc3c(Cl)c2C1` [Example 6, 10-Chloro-3,4-dihydro-1H-thiopyrano[4,3-b]quinoline 2,2-dioxide], 10 µM produced 32% inhibition in assay [1]. Moreover, at 5 µM the inhibition in assay [2] was 19%.
The compound `CCOC(=O)C1CCc2nc3cc(Cl)ccc3c(NNc3ccccc3)c2C1` (stereo not shown) [Example 10, 6-Chloro-1,2,3,4-tetrahydro-9-(2-phenylhydrazino)-2-acridinecarboxylic acid ethyl ester] displayed an inhibition at 10 µM in assay [1] of 96%. In assay [2], this compound yielded an inhibition at 0.1 µM of 70% and an inhibition at 1 µM of 91%.
In the case of `CC1CCc2nc3cc(Cl)ccc3c(Cl)c2C1` (stereo not shown) [Example 2A, 6,9-Dichloro-1,2,3,4-tetrahydro-2-methylacridine, quarter hydrate], the inhibition at 10 µM in assay [1] was determined as 34 ± 26%.
Take `Clc1ccc2c(Cl)c3c(nc2c1)CCSC3` [Example 1A, 7,10-Dichloro-3,4-dihydro-1H-thiopyrano[4,3-b]quinoline]: the inhibition at 10 µM in assay [1] is 35 ± 11%.
`O=C(O)C1CCc2nc3cc(Cl)ccc3c(Cl)c2C1` (stereo not shown) [Example 11, 6,9-Dichloro-1,2,3,4-tetrahydro-2-acridinecarboxylic acid]: the inhibition at 10 µM in assay [1] turned out to be 88%. In assay [2], this compound registered an inhibition at 0.1 µM of 58% and an inhibition at 1 µM of 50%.
Take `Clc1ccc2c(NNc3ccccc3)c3c(nc2c1)CCSC3` [Example 1B, 7-Chloro-3,4-dihydro-10-(2-phenylhydrazino)-1H-thiopyrano[4,3-b]quinoline]: in assay [1], at 10 µM the inhibition was 98 ± 1%. Further, in assay [2], testing at 0.1 µM gave an inhibition of 67%, the inhibition at 1 µM was 94% and the inhibition at 5 µM was 93 ± 5%.
In assay [1], `O=S1(=O)CCc2nc3cc(Cl)ccc3c(NNc3ccccc3)c2C1` [Example 8, 7-Chloro-3,4-dihydro-10-(2-phenylhydrazino)-1H-thiopyrano[4,3-b]quinoline 2,2-dioxide] had an inhibition at 10 µM of 16%. In assay [2], the inhibition at 1 µM turned out to be 3% and testing at 5 µM gave an inhibition of 37%.
`CC1CCc2nc3cc(Cl)ccc3c(NNc3ccccc3)c2C1` (stereo not shown) [Example 2B, 6-Chloro-1,2,3,4-tetrahydro-2-methyl-9-(2-phenylhydrazino)acridine] displayed an inhibition at 10 µM in assay [1] of 85 ± 6%. This compound displayed an inhibition at 1 µM in assay [2] of 36%.
As to `c1ccc(NNc2c3c(nc4ccccc24)CCSC3)cc1` [Example 5, 3,4-Dihydro-10-(2-phenylhydrazino)-1H-thiopyrano[4,3-b]quinoline, three-quarters hydrate], at 10 µM the inhibition in assay [1] was 79 ± 14%. Also, in assay [2], the inhibition at 1 µM stood at 37% and the inhibition at 5 µM was found to be 55 ± 22%.
In turn, `Clc1ccc2c(NNc3ccccc3)c3c(nc2c1)CCC(c1ccccc1)C3` (stereo not shown) [Example 3B, 6-Chloro-1,2,3,4-tetrahydro-2-phenyl-9-(2-phenylhydrazino)acridine] displayed an inhibition at 10 µM in assay [1] of 81 ± 2%. The same compound yielded an inhibition at 1 µM in assay [2] of 27%.
In assay [1], `COC(=O)C1CCc2nc3cc(Cl)ccc3c(Cl)c2C1` (stereo not shown) [Example 9, 6,9-Dichloro-1,2,3,4-tetrahydro-2-acridinecarboxylic acid methyl ester] returned an inhibition at 10 µM of 58%. For the same compound, in assay [2], the inhibition at 1 µM was determined as 30% and at 5 µM the inhibition was 53%.
In turn, `O=C(O)C1CCc2nc3cc(Cl)ccc3c(NNc3ccccc3)c2C1` (stereo not shown) [Example 12, 6-Chloro-1,2,3,4-tetrahydro-9-(2-phenylhydrazino)-2-acridinecarboxylic acid hemihydrate] showed an inhibition at 10 µM in assay [1] of 68%. In assay [2], this compound gave an inhibition at 0.1 µM of 57% and an inhibition at 1 µM of 61%.
